Measured values taken from ChEMBL document CHEMBL4052714, “Synthesis and antibacterial activity of novel 4″-O-(1-aralkyl-1,2,3-triazol-4-methyl-carbamoyl) azithromycin analogs” (2017).
Values after ≈ are worked out from the molar mass of the structure shown.

What was measured:
Format in all cases: functional
Pseudomonas aeruginosa = experiment: Antibacterial activity against Pseudomonas aeruginosa ATCC 27853
Streptococcus pyogenes [1] = experiment: Antibacterial activity against erythromycin-susceptible Streptococcus pyogenes isolate S2
Streptococcus pneumoniae [2] = experiment: Antibacterial activity against erythromycin-resistant Streptococcus pneumoniae B1 expressing ermB gene
Streptococcus pneumoniae [3] = experiment: Antibacterial activity against erythromycin-resistant Streptococcus pneumoniae AB11 expressing ermB/mefA gene
Streptococcus pneumoniae [4] = experiment: Antibacterial activity against erythromycin-susceptible Streptococcus pneumoniae ATCC 49619
Streptococcus pyogenes [5] = experiment: Antibacterial activity against erythromycin-resistant Streptococcus pyogenes isolate R2
Staphylococcus aureus [6] = experiment: Antibacterial activity against methicillin-susceptible Staphylococcus aureus ATCC 29213
Staphylococcus aureus [7] = experiment: Antibacterial activity against erythromycin-susceptible Staphylococcus aureus ATCC 25923
Escherichia coli = experiment: Antibacterial activity against Escherichia coli ATCC 25922
Streptococcus pneumoniae [8] = experiment: Antibacterial activity against erythromycin-resistant Streptococcus pneumoniae A22072 expressing mefA gene

Compound: CC[C@H]1OC(=O)[C@H](C)[C@@H](O[C@H]2C[C@@](C)(OC)[C@@H](OC(=O)NCc3cn(Cc4ccccc4Cl)nn3)[C@H](C)O2)[C@H](C)[C@@H](O[C@@H]2O[C@H](C)C[C@H](N(C)C)[C@H]2O)[C@](C)(O)C[C@@H](C)CN(C)[C@H](C)[C@@H](O)[C@]1(C)O
- MIC (Pseudomonas aeruginosa): 32 µg/mL (≈ 32.1 µM)
- MIC (Streptococcus pyogenes [1]): 0.03 µg/mL (≈ 0.0301 µM)
- MIC (Streptococcus pneumoniae [2]): 1 µg/mL (≈ 1 µM)
- MIC (Streptococcus pneumoniae [3]): 0.5 µg/mL (≈ 0.501 µM)
- MIC (Streptococcus pneumoniae [4]): 0.25 µg/mL (≈ 0.251 µM)
- MIC (Streptococcus pyogenes [5]): 64 µg/mL (≈ 64.1 µM)
- MIC (Staphylococcus aureus [6]): 8 µg/mL (≈ 8.02 µM)
- MIC (Staphylococcus aureus [7]): 1 µg/mL (≈ 1 µM)
- MIC (Escherichia coli): 128 µg/mL (≈ 128 µM)
- MIC (Streptococcus pneumoniae [8]): 0.25 µg/mL (≈ 0.251 µM)

Compound: CC[C@H]1OC(=O)[C@H](C)[C@@H](O[C@H]2C[C@@](C)(OC)[C@@H](OC(=O)NCc3cn(Cc4ccccc4C)nn3)[C@H](C)O2)[C@H](C)[C@@H](O[C@@H]2O[C@H](C)C[C@H](N(C)C)[C@H]2O)[C@](C)(O)C[C@@H](C)CN(C)[C@H](C)[C@H]2OC(=O)O[C@@]21C
- MIC (Pseudomonas aeruginosa): 64 µg/mL (≈ 63.8 µM)
- MIC (Streptococcus pyogenes [1]): 0.06 µg/mL (≈ 0.0598 µM)
- MIC (Streptococcus pneumoniae [2]): 4 µg/mL (≈ 3.99 µM)
- MIC (Streptococcus pneumoniae [3]): 2 µg/mL (≈ 1.99 µM)
- MIC (Streptococcus pneumoniae [4]): 0.5 µg/mL (≈ 0.498 µM)
- MIC (Streptococcus pyogenes [5]): 64 µg/mL (≈ 63.8 µM)
- MIC (Staphylococcus aureus [6]): 32 µg/mL (≈ 31.9 µM)
- MIC (Staphylococcus aureus [7]): 4 µg/mL (≈ 3.99 µM)
- MIC (Escherichia coli): 128 µg/mL (≈ 128 µM)
- MIC (Streptococcus pneumoniae [8]): 2 µg/mL (≈ 1.99 µM)

Compound: CC[C@H]1OC(=O)[C@H](C)[C@@H](O[C@H]2C[C@@](C)(OC)[C@@H](OC(=O)NCc3cn(Cc4ccccc4)nn3)[C@H](C)O2)[C@H](C)[C@@H](O[C@@H]2O[C@H](C)C[C@H](N(C)C)[C@H]2O)[C@](C)(O)C[C@@H](C)CN(C)[C@H](C)[C@@H](O)[C@]1(C)O
- MIC (Pseudomonas aeruginosa): 32 µg/mL (≈ 33.2 µM)
- MIC (Streptococcus pyogenes [1]): 0.06 µg/mL (≈ 0.0623 µM)
- MIC (Streptococcus pneumoniae [2]): 2 µg/mL (≈ 2.08 µM)
- MIC (Streptococcus pneumoniae [3]): 4 µg/mL (≈ 4.15 µM)
- MIC (Streptococcus pneumoniae [4]): 0.5 µg/mL (≈ 0.519 µM)
- MIC (Streptococcus pyogenes [5]): 32 µg/mL (≈ 33.2 µM)
- MIC (Staphylococcus aureus [6]): 8 µg/mL (≈ 8.31 µM)
- MIC (Staphylococcus aureus [7]): 1 µg/mL (≈ 1.04 µM)
- MIC (Escherichia coli): 32 µg/mL (≈ 33.2 µM)
- MIC (Streptococcus pneumoniae [8]): 1 µg/mL (≈ 1.04 µM)

Compound: CC[C@H]1OC(=O)[C@H](C)[C@@H](O[C@H]2C[C@@](C)(OC)[C@@H](OC(=O)NCc3cn(Cc4ccc(Cl)cc4)nn3)[C@H](C)O2)[C@H](C)[C@@H](O[C@@H]2O[C@H](C)C[C@H](N(C)C)[C@H]2O)[C@](C)(O)C[C@@H](C)CN(C)[C@H](C)[C@@H](O)[C@]1(C)O
- MIC (Pseudomonas aeruginosa): 32 µg/mL (≈ 32.1 µM)
- MIC (Streptococcus pyogenes [1]): 0.03 µg/mL (≈ 0.0301 µM)
- MIC (Streptococcus pneumoniae [2]): 2 µg/mL (≈ 2 µM)
- MIC (Streptococcus pneumoniae [3]): 0.5 µg/mL (≈ 0.501 µM)
- MIC (Streptococcus pneumoniae [4]): 0.5 µg/mL (≈ 0.501 µM)
- MIC (Streptococcus pyogenes [5]): 64 µg/mL (≈ 64.1 µM)
- MIC (Staphylococcus aureus [6]): 16 µg/mL (≈ 16 µM)
- MIC (Staphylococcus aureus [7]): 1 µg/mL (≈ 1 µM)
- MIC (Escherichia coli): 64 µg/mL (≈ 64.1 µM)
- MIC (Streptococcus pneumoniae [8]): 1 µg/mL (≈ 1 µM)

Compound: CC[C@H]1OC(=O)[C@H](C)[C@@H](O[C@H]2C[C@@](C)(OC)[C@@H](OC(=O)NCc3cn(Cc4ccc(C)cc4)nn3)[C@H](C)O2)[C@H](C)[C@@H](O[C@@H]2O[C@H](C)C[C@H](N(C)C)[C@H]2O)[C@](C)(O)C[C@@H](C)CN(C)[C@H](C)[C@@H](O)[C@]1(C)O
- MIC (Pseudomonas aeruginosa): 64 µg/mL (≈ 65.5 µM)
- MIC (Streptococcus pyogenes [1]): 0.03 µg/mL (≈ 0.0307 µM)
- MIC (Streptococcus pneumoniae [2]): 0.5 µg/mL (≈ 0.512 µM)
- MIC (Streptococcus pneumoniae [3]): 1 µg/mL (≈ 1.02 µM)
- MIC (Streptococcus pneumoniae [4]): 0.5 µg/mL (≈ 0.512 µM)
- MIC (Streptococcus pyogenes [5]): 64 µg/mL (≈ 65.5 µM)
- MIC (Staphylococcus aureus [6]): 16 µg/mL (≈ 16.4 µM)
- MIC (Staphylococcus aureus [7]): 1 µg/mL (≈ 1.02 µM)
- MIC (Escherichia coli): 32 µg/mL (≈ 32.7 µM)
- MIC (Streptococcus pneumoniae [8]): 0.5 µg/mL (≈ 0.512 µM)

Compound: CC[C@H]1OC(=O)[C@H](C)[C@@H](O[C@H]2C[C@@](C)(OC)[C@@H](OC(=O)NCc3cn(Cc4cccc(Cl)c4)nn3)[C@H](C)O2)[C@H](C)[C@@H](O[C@@H]2O[C@H](C)C[C@H](N(C)C)[C@H]2O)[C@](C)(O)C[C@@H](C)CN(C)[C@H](C)[C@@H](O)[C@]1(C)O
- MIC (Pseudomonas aeruginosa): 32 µg/mL (≈ 32.1 µM)
- MIC (Streptococcus pyogenes [1]): 0.06 µg/mL (≈ 0.0601 µM)
- MIC (Streptococcus pneumoniae [2]): 0.5 µg/mL (≈ 0.501 µM)
- MIC (Streptococcus pneumoniae [3]): 1 µg/mL (≈ 1 µM)
- MIC (Streptococcus pneumoniae [4]): 0.25 µg/mL (≈ 0.251 µM)
- MIC (Streptococcus pyogenes [5]): 64 µg/mL (≈ 64.1 µM)
- MIC (Staphylococcus aureus [6]): 8 µg/mL (≈ 8.02 µM)
- MIC (Staphylococcus aureus [7]): 1 µg/mL (≈ 1 µM)
- MIC (Escherichia coli): 16 µg/mL (≈ 16 µM)
- MIC (Streptococcus pneumoniae [8]): 0.25 µg/mL (≈ 0.251 µM)

Compound: CC[C@H]1OC(=O)[C@H](C)[C@@H](O[C@H]2C[C@@](C)(OC)[C@@H](O)[C@H](C)O2)[C@H](C)[C@@H](O[C@@H]2O[C@H](C)C[C@H](N(C)C)[C@H]2O)[C@](C)(O)C[C@@H](C)CN(C)[C@H](C)[C@@H](O)[C@]1(C)O [AZITHROMYCIN]
- MIC (Pseudomonas aeruginosa): 8 µg/mL (≈ 10.7 µM)
- MIC (Streptococcus pyogenes [1]): 0.03 µg/mL (≈ 0.0401 µM)
- MIC (Streptococcus pneumoniae [2]): 128 µg/mL (≈ 171 µM)
- MIC (Streptococcus pneumoniae [3]): 256 µg/mL (≈ 342 µM)
- MIC (Streptococcus pneumoniae [4]): 0.125 µg/mL (≈ 0.167 µM)
- MIC (Streptococcus pyogenes [5]): 128 µg/mL (≈ 171 µM)
- MIC (Staphylococcus aureus [6]): 1 µg/mL (≈ 1.34 µM)
- MIC (Staphylococcus aureus [7]): 0.25 µg/mL (≈ 0.334 µM)
- MIC (Escherichia coli): 16 µg/mL (≈ 21.4 µM)
- MIC (Streptococcus pneumoniae [8]): 4 µg/mL (≈ 5.34 µM)

Compound: CC[C@H]1OC(=O)[C@H](C)[C@@H](O[C@H]2C[C@@](C)(OC)[C@@H](O)[C@H](C)O2)[C@H](C)[C@@H](O[C@@H]2O[C@H](C)C[C@H](N(C)C)[C@H]2O)[C@](C)(OC)C[C@@H](C)C(=O)[C@H](C)[C@@H](O)[C@]1(C)O [CLARITHROMYCIN]
- MIC (Pseudomonas aeruginosa): 32 µg/mL (≈ 42.8 µM)
- MIC (Streptococcus pyogenes [1]): 0.03 µg/mL (≈ 0.0401 µM)
- MIC (Streptococcus pneumoniae [2]): 128 µg/mL (≈ 171 µM)
- MIC (Streptococcus pneumoniae [3]): 128 µg/mL (≈ 171 µM)
- MIC (Streptococcus pneumoniae [4]): 0.125 µg/mL (≈ 0.167 µM)
- MIC (Streptococcus pyogenes [5]): 128 µg/mL (≈ 171 µM)
- MIC (Staphylococcus aureus [6]): 0.25 µg/mL (≈ 0.334 µM)
- MIC (Staphylococcus aureus [7]): 0.12 µg/mL (≈ 0.16 µM)
- MIC (Escherichia coli): 64 µg/mL (≈ 85.6 µM)
- MIC (Streptococcus pneumoniae [8]): 4 µg/mL (≈ 5.35 µM)
